Data taken from PMC12024213, “Mechanism Insight of Cell Death Signaling by Thymol Derivatives on Trypanosomatidae Protozoan Parasites” (Antibiotics, 2025).

What was measured:
T. cruzi [1] = experiment: Intracellular ROS, CellROX Deep Red, T. cruzi; type: cell-based, Trypanosoma cruzi; details: 24 h incubation
Method: (§1) The measure of reactive oxygen species (ROS) was measured after treatment of 24 h using CellROX® Deep Red fluorescent probe (Invitrogen, Madrid, Spain). The mitochondria constitute an essential organelle to neutralize the reactive oxygen species; the malfunction of this organelle would generate an imbalance between the antioxidants and the reactive oxygen.

[2] = system: intramacrophage L. amazonensis; experiment: Intramacrophagic stage assay, L. amazonensis in J774.A1 macrophages; type: cell-based, Leishmania amazonensis; details: Leishmania amazonensis; intramacrophage stage in J774.A1, 24 h treatment; mean ± SD; read-out: L. amazonensis Intracellular IC50
Method: (§2) Briefly, in a 96-well plate, macrophages from the J774.A1 cell line were seeded at a final concentration of 2 × 10^5 cells/mL in Dulbecco’s Modified Eagle Medium (DMEM) and maintained at 37 °C in a 5% CO2 atmosphere until fully adhesion. […] After infection, plates were washed using DMEM to eliminate external parasites. Subsequently, infected macrophages were treated with different concentrations of active compounds for 24 h. Later, macrophages were lysed using 30 μL of medium, Schneider for Leishmania, and in liver infusion tryptose for Trypanosoma, containing 0.05% of sodium dodecyl sulfate (SDS) for 30 s under agitation. Afterwards, 170 μL of the appropriated medium was derivatives added to each well to give a final volume of 200 μL. Subsequently, 10% of alamarBlue® was added into each well and the plate was incubated at 26 °C for 72 h. Cytotoxicity effect of the tested derivatives was conducted using macrophages of the murine cell line J774.A1 (American Type Culture Collection #TIB-67, city, country), as previously described. The cells were maintained in DMEM at 37 °C in a 5% CO2 humidified incubator.

[3] = as above; type: cell-based, Leishmania amazonensis; details: mouse; CC50 J774.A1 / IC50 intracellular L. amazonensis; read-out: Selectivity Leishmania SI (CC50/IC50)
Method: as §2

L. amazonensis [4] = experiment: Atomic force microscopy, L. amazonensis; type: cell-based, Leishmania amazonensis; details: IC90, 12 and 24 h
Method: (§3) […] After incubation, cells were washed twice with PBS, and 10 µL of a 10^5 cells/mL suspension was smeared onto glass slides. Prior to AFM analysis, samples were dried for 10 min. AFM topographic images were acquired in Peak Force mode using a multimode microscope equipped with a Nanoscope V control unit (Bruker). Scans were performed at rates of 0.5–1.2 Hz, employing FESP tips (50–100 kHz, 1–5 N/m) from Bruker. The damage caused by derivative 9 in both parasites was assessed by recording images at scales ranging from 100 µm × 100 µm to 0.6 µm × 0.6 µm, with a resolution of 512 points per line.

T. cruzi epimastigotes = experiment: Mitochondrial membrane potential, JC-1, T. cruzi; type: cell-based, Trypanosoma cruzi; details: JC-1 red/green ratio, IC90, 24 h
Method: The measurement of mitochondrial membrane potential was carried out using the JC-1 assay. JC-1 is a mitochondria-specific stain whose fluorescence emission depends on the mitochondrial membrane potential. In healthy mitochondria, JC-1 aggregates and emits red fluorescence, whereas in unhealthy mitochondria, it remains in monomeric form and emits green fluorescence. […] The assay was performed according to the manufacturer’s instructions, as detailed in a previous study.

T. cruzi [5] = experiment: Atomic force microscopy, T. cruzi; type: cell-based, Trypanosoma cruzi; details: IC90, 12 and 24 h
Method: as §3

L. amazonensis [6] = experiment: Intracellular ROS, CellROX Deep Red, L. amazonensis; type: cell-based, Leishmania amazonensis; details: 24 h incubation
Method: as §1

T. cruzi [7] = system: T. cruzi
Method: (§4) The effect of derivatives 9 and 10 to modulate cell features was studied in the tested protozoa parasites, using various specific commercial kits. Parasite cells were incubated with the derivative at the previously calculated IC90 for 24 h. Subsequently, cells were washed and submitted to different treatments as mentioned by the manufacturer’s instructions. In all the assays, a plate reader EnSpire Multimode Plate Reader® and/or an image base system fluorescence microscope EVOS M5000 were used for the fluorescence intensity quantification. For each protocol, images of representative population cells were obtained using an inverted confocal microscope Leica DMI 4000 B with LAS X software, and Leica HC PL APO 63×/1.40 OIL CS2 Objective (Barcelona, Spain). The SYTOX™ Green (Life Technologies, Madrid, Spain), a cell impermeable DNA binding stain, was used to evaluate the membrane permeability and integrity. The assay was conducted as detailed in the manufacture instructions, and as previously described.

L. amazonensis [8] = system: L. amazonensis
Method: as §4

Row | Compound | intracellular ROS (CellROX Deep Red) (T. cruzi [1]) | IC50 [2] [µM] | selectivity ratio [3] | morphological effects (AFM) (L. amazonensis [4]) | decrease of mitochondrial membrane potential (ΔΨm) (T. cruzi epimastigotes) [%] | morphological effects (AFM) (T. cruzi [5]) | intracellular ROS (CellROX Deep Red) (L. amazonensis [6]) | plasma membrane permeability (SYTOX Green) (T. cruzi [7]) | plasma membrane permeability (SYTOX Green) (L. amazonensis [8])
1 | COc1ccc(C(=O)Oc2cc(C)ccc2C(C)C)cc1 [Derivative 9, thymyl anysoate] | induced oxidative stress | 15.2 ± 0.8 | > 19.7 | induced the formation of giant vacuoles in the cytoplasm | 70 | induced the formation of giant vacuoles in the cytoplasm | induced oxidative stress | – | –
2 | Cc1ccc(C(C)C)c(OC(=O)c2ccccn2)c1 [Derivative 10, thymyl picolinate] | – | 25.3 ± 0.8 | 10.1 | – | – | – | – | greater damage to membrane permeability | greater damage to membrane permeability
